Measurements reported in US20240308978A1, “COMPOUNDS AND COMPOSITIONS FOR TREATING CONDITIONS ASSOCIATED WITH STING ACTIVITY” (IFM Due, Inc., priority 2021, published 2024).

Biological target: T1, hSTING (Homo sapiens, UniProt Q86WV6, G230A/H232R/R293Q/R71H)
T1 construct: host or cells: THP1-Dual KO-IFNAR2 cells
Assay: STING reporter assay (luciferase) in THP1-Dual KO-IFNAR2 cells stimulated with 2′3′cGAMP
Type: cell-based
Settings: 15 μM 2′3′cGAMP transfected, 24 h
Experimental: STING pathway activation by the compounds described herein was measured using THP1-Dual™ cells (KO-IFNAR2).
THP1-Dual™ KO-IFNAR2 Cells (obtained from invivogen) were maintained in RPMI, 10% FCS, 5 ml P/S, 2 mM L-glut, 10 mM Hepes, and 1 mM sodium pyruvate. Compounds were spotted in empty 384 well tissue culture plates (Greiner 781182) by Echo for a final concentration of 0.0017-100 μM. Cells were plated into the TC plates at 40 μL per well, 2×10E6 cells/mL. For activation with STING ligand, 2′3′cGAMP (MW 718.38, obtained from Invivogen), was prepared in Optimem media.
The following solutions were prepared for each 1×384 plate: • Solution A: 2 mL Optimem with one of the following stimuli: • 60 μL of 10 mM 2′3′cGAMP→150 μM stock • Solution B: 2 mL Optimem with 60 μL Lipofectamine 2000→Incubate 5 min at RT
2 mL of solution A and 2 ml Solution B was mixed and incubated for 20 min at room temperature (RT). 20 μL of transfection solution (A+B) was added on top of the plated cells, with a final 2′3′cGAMP concentration of 15 μM. The plates were then centrifuged immediately at 340 g for 1 minute, after which they were incubated at 37° C., 5% CO2,>98% humidity for 24 h. Luciferase reporter activity was then measured. EC50 values were calculated by using standard methods known in the art.
Luciferase reporter assay: 10 μL of supernatant from the assay was transferred to white 384-plate with flat bottom and squared wells. One pouch of QUANTI-Luc™ Plus was dissolved in 25 mL of water. 100 μL of QLC Stabilizer per 25 mL of QUANTI-Luc™ Plus solution was added. 50 μL of QUANTI-Luc™ Plus/QLC solution per well was then added. Luminescence was measured on a Platereader (e.g., Spectramax I3X (Molecular Devices GF3637001)).
Luciferase reporter activity was then measured. EC50 values were calculated by using standard methods known in the art.

[1] = numeric bound given instead of a class symbol

T1 sequence (Q86WV6 whole entry R71H/G230A/H232R/R293Q): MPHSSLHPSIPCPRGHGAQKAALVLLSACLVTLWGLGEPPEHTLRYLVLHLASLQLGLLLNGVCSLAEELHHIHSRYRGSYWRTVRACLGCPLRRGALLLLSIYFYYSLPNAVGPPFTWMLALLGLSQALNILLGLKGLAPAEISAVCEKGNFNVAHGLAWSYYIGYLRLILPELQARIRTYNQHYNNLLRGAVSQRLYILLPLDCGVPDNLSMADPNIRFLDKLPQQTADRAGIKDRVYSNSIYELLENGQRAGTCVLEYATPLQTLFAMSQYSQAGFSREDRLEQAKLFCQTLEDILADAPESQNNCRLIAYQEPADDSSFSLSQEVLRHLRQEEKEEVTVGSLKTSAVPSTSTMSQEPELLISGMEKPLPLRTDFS

Structure (SMILES)	EC50 (class symbols) [nM]	EC50 [1] [nM]
O=C(Nc1c[nH]c2cc(F)c(F)cc12)N[C@H]1CC[C@H](OC2CC(F)(F)C2)CC1 [Compound 101, 1-(5,6-difluoro-1H-indol-3-yl)-3-((1r,4r)-4-(3,3-difluorocyclobutoxy)cyclohexyl)urea]	1000 to 5000	–
O=C(Nc1c[nH]c2ccc(Cl)cc12)N[C@H]1CC[C@@H](N2CCC(F)(F)CC2)CC1 [Compound 102, 1-(5-chloro-1H-indol-3-yl)-3-((1s,4s)-4-(4,4-difluoropiperidin-1-yl)cyclohexyl)urea]	5000 to 100000	–
O=C(Nc1c[nH]c2ccc(Cl)cc12)N[C@H]1CC[C@H](N2CCC(F)(F)CC2)CC1 [Compound 103, 1-(5-chloro-1H-indol-3-yl)-3-((1r,4r)-4-(4,4-difluoropiperidin-1-yl)cyclohexyl)urea]	5000 to 100000	–
O=C(Nc1c[nH]c2cc(F)c(F)cc12)NC1CC(OC2CCN(CC(F)(F)F)CC2)C1 (stereo not drawn) [Compound 104, 1-(5,6-difluoro-1H-indol-3-yl)-3-(3-((1-(2,2,2-trifluoroethyl)piperidin-4-yl)oxy)cyclobutyl)urea]	1000 to 5000	–
O=C(Nc1c[nH]c2ccc(Cl)cc12)NC1CCN(c2ccc(C(F)(F)F)cn2)CC1 [Compound 105, 1-(5-chloro-1H-indol-3-yl)-3-(1-(5-(trifluoromethyl)pyridin-2-yl)piperidin-4-yl)urea]	200 to 1000	–
COCCN1CCC(O[C@H]2CC[C@H](NC(=O)Nc3c[nH]c4ccc(Cl)cc34)CC2)CC1 [Compound 106, 1-(5-chloro-1H-indol-3-yl)-3-((1r,4r)-4-((1-(2-methoxyethyl)piperidin-4-yl)oxy)cyclohexyl)urea]	–	> 30000
O=C(Nc1c[nH]c2ccc(Cl)cc12)NC1CCN(Cc2ccc(C(F)(F)F)cn2)CC1 [Compound 107, 1-(5-chloro-1H-indol-3-yl)-3-(1-((5-(trifluoromethyl)pyridin-2-yl)methyl)piperidin-4-yl)urea]	1000 to 5000	–
O=C(Nc1c[nH]c2ccc(F)cc12)N[C@H]1CC[C@H](Oc2ccc(C(F)(F)F)cn2)CC1 [Compound 108, 1-(5-fluoro-1H-indol-3-yl)-3-((1r,4r)-4-((5-(trifluoromethyl)pyridin-2-yl)oxy)cyclohexyl)urea]	200 to 1000	–
O=C(Nc1c[nH]c2ccc(F)cc12)N[C@H]1CC[C@@H](Oc2ccc(C(F)(F)F)cn2)CC1 [Compound 109, 1-(5-fluoro-1H-indol-3-yl)-3-((1s,4s)-4-((5-(trifluoromethyl)pyridin-2-yl)oxy)cyclohexyl)urea]	200 to 1000	–
O=C(Nc1c[nH]c2ccc(Cl)cc12)N[C@H]1C[C@H](Oc2ccc(C(F)(F)F)cn2)C1 [Compound 110, 1-(5-chloro-1H-indol-3-yl)-3-((1r,3r)-3-((5-(trifluoromethyl)pyridin-2-yl)oxy)cyclobutyl)urea]	200 to 1000	–
O=C(Nc1c[nH]c2ccc(Cl)cc12)N[C@H]1C[C@@H](Oc2ccc(C(F)(F)F)cn2)C1 [Compound 111, 1-(5-chloro-1H-indol-3-yl)-3-((1s,3s)-3-((5-(trifluoromethyl)pyridin-2-yl)oxy)cyclobutyl)urea]	200 to 1000	–
O=C(Nc1c[nH]c2ccc(Cl)cc12)N[C@H]1CC[C@H](Oc2ccc(C(F)(F)F)cn2)CC1 [Compound 112, 1-(5-chloro-1H-indol-3-yl)-3-((1r,4r)-4-((5-(trifluoromethyl)pyridin-2-yl)oxy)cyclohexyl)urea]	200 to 1000	–
O=C(Nc1c[nH]c2ccc(Cl)cc12)N[C@H]1CC[C@@H](Oc2ccc(C(F)(F)F)cn2)CC1 [Compound 113, 1-(5-chloro-1H-indol-3-yl)-3-((1s,4s)-4-((5-(trifluoromethyl)pyridin-2-yl)oxy)cyclohexyl)urea]	200 to 1000	–
O=C(Nc1c[nH]c2ncc(F)cc12)N[C@H]1CC[C@@H](Oc2ccc(C(F)(F)F)cn2)CC1 [Compound 115, 1-(5-fluoro-1H-pyrrolo[2,3-b]pyridin-3-yl)-3-((1s,4s)-4-((5-(trifluoromethyl)pyridin-2-yl)oxy)cyclohexyl)urea]	1000 to 5000	–
O=C(Nc1c[nH]c2ncc(F)cc12)N[C@H]1CC[C@H](Oc2ccc(C(F)(F)F)cn2)CC1 [Compound 116, 1-(5-fluoro-1H-pyrrolo[2,3-b]pyridin-3-yl)-3-((1r,4r)-4-((5-(trifluoromethyl)pyridin-2-yl)oxy)cyclohexyl)urea]	–	> 30000
